Results published in patent US20120270807A1, “MACROCYCLIC INHIBITORS OF SERINE PROTEASE ENZYMES” (priority 2009, published 2012).

Target: human matriptase (Homo sapiens, UniProt Q9Y5Y6)
Experiment: Assay for inhibition of matriptase (fluorogenic substrate Boc-Gln-Ala-Arg-AMC)
Format: biochemical
Conditions: residual matriptase activity in presence of test compound; hydrolysis of Boc-Gln-Ala-Arg-AMC; 10 μM for initial screening per method
Excerpt: The following describes an assay for matriptase as a representative serine protease and is based upon reported methods. (Désilets, A.; Longpré, J.-M.; Beaulieu, M.-E.; Leduc, R. FEBS Lett. 2006, 580, 2227-2232.) Similar assays are applicable and available for other serine proteases.
Enzyme activities were monitored by measuring the release of fluorescence from AMC-coupled peptides (excitation, 360 nm; emission, 441 nm) in a FLX-800 TBE microplate reader (Bio-Tek Instruments, Winooski, Vt., USA). The purified human matriptase was active site titrated with the burst titrant 4-methylumbelliferyl-p-guanidino benzoate (MUGB). Enzymatic assays with matriptase were performed in Tris-HCl 100 mM containing 500 µg/mL BSA at pH 9. Human soluble furin was expressed, purified, titrated and assayed as described in the literature (Denault, J. B.; Lazure, C.; Day, R; Leduc, R. Protein Expr. Purif. 2000, 19, 113-124.) The purified HAT protein was active-site titrated with MUGB. Assays with HAT were performed in 50 mM Tris-HCl at pH 8.6.
Enzymes were diluted to concentrations ranging from 4 to 12.5 nM for furin, from 2 to 7 nM for matriptase and 20 pM for HAT and incubated with either 10 μM (for initial screening) […] or appropriate dilutions (for kinetic analysis), for example 0, 500, 1000, 2000 nM or 0, 250, 500, 1000, 2500, 5000 nM, of the test compound for 15 min at RT. Residual enzyme activity was measured by following the hydrolysis of a fluorogenic substrate (4 μM Boc-Arg-Val-Arg-Arg-AMC for furin, Boc-Gln-Ala-Arg-AMC for matriptase and 4 μM Boc-Val-Pro-Arg-AMC for HAT) (Bachem Bioscience, King of Prussia, Pa., USA). Saturation curves were performed in the presence of increasing concentrations of test compounds. Data from three independent experiments or more were typically averaged and residual velocities were plotted as a function of test compound concentration. Data were fitted by non-linear regression analysis to Equation (1) (Bieth, J. G. Methods Enzymol. 1995, 248, 59-84.) using the Enzfitter software (Biosoft, Ferguson, Mo., USA).
vi/v0=1−{([E]0+[I]0+Ki(app))−(([E]0+[I]0+Ki(app))^2−4[E]0[I]0)^1/2}/2[E]0 Equation (1): […]
where v0 and vi are the steady-state rates of substrate hydrolysis in the absence and presence of inhibitor, respectively, [E]0, the initial concentration of enzyme, [I]0, the initial concentration of inhibitor and Ki(app) the substrate-dependent equilibrium dissociation constant. The substrate-independent constant Ki was calculated using Equation (2) (Bieth, J. G. Methods Enzymol. 1995, 248, 59-84.),
Ki=Ki(app)(1+[S]0/Km) Equation (2): […]
The table presents results for matriptase inhibition for representative compounds of the invention.
Ki's can be calculated from the velocity using nonlinear regression analysis. The model used is a competitive enzyme inhibition equation where KmObs=Km*(1+[I]/Ki) and Y=Vmax*X/(KmObs+X). X is the substrate concentration. Y the velocity.

Chain of human matriptase (Q9Y5Y6 615-855 limits assumed, other chains not shown): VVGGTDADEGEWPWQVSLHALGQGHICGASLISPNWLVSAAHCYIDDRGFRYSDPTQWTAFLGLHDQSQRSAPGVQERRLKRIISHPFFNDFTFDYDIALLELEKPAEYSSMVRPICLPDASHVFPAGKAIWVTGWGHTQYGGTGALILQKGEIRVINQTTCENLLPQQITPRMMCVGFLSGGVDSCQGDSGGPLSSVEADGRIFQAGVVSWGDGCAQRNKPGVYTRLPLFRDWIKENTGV

C[C@@H]1CN[C@@H](C2CC2)C(=O)N(C)[C@H](C)C(=O)N[C@H](Cc2ccc(C(=N)N)cc2)C(=O)NCCCc2ccccc2O1 [Compound 459]
Velocity (FU/min): 140 FU/min

C[C@@H]1NCCOc2cc(F)ccc2CCCNC(=O)[C@@H](Cc2ccc(C(=N)N)cc2)NC(=O)[C@@H](C)N(C)C1=O [Compound 467]
Velocity (FU/min): 2300 FU/min

C[C@@H]1C(=O)N[C@H](Cc2ccc(C(=N)N)cc2)C(=O)NC/C=C/c2cccc(c2)OCCN[C@@H](C2CC2)C(=O)N1C [Compound 482]
Velocity (FU/min): 2500 FU/min

C[C@@H]1C(=O)N[C@H](CCCN)C(=O)NCCCc2ccc(F)cc2OCCN[C@@H](C2CC2)C(=O)N1C [Compound 487]
Velocity (FU/min): 2500 FU/min

C[C@@H]1C(=O)N[C@H](Cc2c[nH]cn2)C(=O)NCCCc2ccc(F)cc2OCCN[C@@H](C2CC2)C(=O)N1C [Compound 493]
Velocity (FU/min): 2700 FU/min

C[C@@H]1C(=O)N[C@H](Cc2ccncc2)C(=O)NCCCc2ccc(F)cc2OCCN[C@@H](C2CC2)C(=O)N1C [Compound 495]
Velocity (FU/min): 2700 FU/min

C[C@@H]1C(=O)N[C@H](Cc2cscn2)C(=O)NCCCc2ccc(F)cc2OCCN[C@@H](C2CC2)C(=O)N1C [Compound 496]
Velocity (FU/min): 2700 FU/min

C[C@@H]1CN[C@@H](C2CC2)C(=O)N(C)[C@H](C)C(=O)N[C@H](Cc2ccc(C(N)=O)cc2)C(=O)NCCCc2ccccc2O1 [Compound 498]
Velocity (FU/min): 580 FU/min
